Results published in patent US20080269279A1, “Substituted furo[2,3-B] pyridine derivatives as cannabinoid-1 receptor modulators” (priority 2007, published 2008).
Where a name gives a salt, the structure may show the parent alone.

Test system: human GABA α1β3β2 receptors
Experiment: GABAa, 3H-muscimol binding assay
Conditions: activity at 10 μM as percentage of activity of control compound P18 at 10 μM (increase of 3H-muscimol binding)
Method: Membranes from recombinant Ltk cells expressing human GABA α1β3β2 receptors were suspended in an ice-cold solution of 100 mM KCl, 10 mM KH2PO4, adjusted to pH=7.4 with 1 M KOH. Tritiated muscimol (PerkinElmer, Wellesley, Mass.) at a concentration of 2 nM, and serial five-fold dilutions of test compounds at 10 μM, 2.0 μM, 400 nM, 80 nM, 16 nM, 3.2 nM, 0.64 nM and 0.13 nM were mixed in 96-well plates containing 200 μL of membrane suspension. Cold muscimol and compound P18 were used as negative and positive controls respectively. The assay mixture was incubated at 4° C. for 2 hours, then harvested on GF/C filter plates and washed with ice-cold 50 mM Tris-Ci buffer. The filter plates were dried and counted in a Wallac MicroBeta® Trilux detector (Model 1450-030; PerkinElmer, Wellesley, Mass.), and the data were downloaded and analyzed using Prism 3.0. The activity of compound P18 at 10 μM was used as reference for the test compounds, and it was expressed as increasing ^3H-muscimol binding by 100%, whereas cold muscimol at 2 μM antagonized ^3H-muscimol binding by 100%. The tested compound's activity at 10 μM was expressed as a percentage of compound P18's activity at 10 μM.
As a reference, the parent compound (the compound not substituted with a R^4 heteroaryl, such as pyrazole or 1,2,4-oxadiazole, as indicated below) is also shown with its Gamma Amino Butyric Acid (GABA) Receptor activity. […] As a result, the compounds of the present invention in which R^4 is a heteroaryl, such as pyrazole or 1,2,4-oxadiazole, have the unexpected benefits of minimizing off target activity at the GABA receptor.
Note: % GABA is defined as the GABA activity of the indicated compound expressed as a percentage of the activity of control compound P18. NA=data not available.

Row | % GABA Example | Structure (SMILES)
1 | 12% | CC(=O)Nc1c(C(=O)C(C)(C)C)oc2nc(-c3ccc(-c4cn[nH]c4)cc3Cl)c(-c3ccc(Cl)cc3)cc12 [Example 4, N-[5-(4-Chlorophenyl)-6-[2-chloro-4-(1H-pyrazol-4-yl)phenyl]-2-(2,2-dimethylpropanoyl)furo[2,3-b]pyridin-3-yl]acetamide]
2 | 11% | CCC(=O)c1oc2nc(-c3ccc(-c4cn[nH]c4)cc3Cl)c(-c3ccc(Cl)cc3)cc2c1NC(C)=O [Example 5, N-{5-(4-Chlorophenyl)-6-[2-chloro-4-(1H-pyrazol-4-yl)phenyl]-2-propionylfuro[2,3-b]pyridin-3-yl}acetamide]
3 | 3% | CC(C)C(=O)Nc1c(C(=O)C(C)(C)C)oc2nc(-c3ccc(-c4cn[nH]c4)cc3Cl)c(-c3ccc(Cl)cc3)cc12 [Example 6, N-[5-(4-Chlorophenyl)-6-[2-chloro-4-(1H-pyrazol-4-yl)phenyl]-2-(2,2-dimethylpropanoyl)furo[2,3-b]pyridin-3-yl]-2-methylpropanamide]
4 | 26% | CCC(=O)c1oc2nc(-c3ccc(-c4cn[nH]c4)cc3Cl)c(-c3ccc(Cl)cc3)cc2c1N [Example 8, 1-{3-Amino-5-(4-chlorophenyl)-6-[2-chloro-4-(1H-pyrazol-4-yl)phenyl]furo[2,3-b]pyridin-2-yl}propan-1-one]
5 | 30% | Cc1c(C(=O)C(C)(C)O)oc2nc(-c3ccc(-c4cn[nH]c4)cc3Cl)c(-c3ccc(Cl)cc3)cc12 [Example 9, 1-{5-(4-Chlorophenyl)-6-[2-chloro-4-(1H-pyrazol-4-yl)phenyl]-3-methylfuro[2,3-b]pyridin-2-yl}-2-hydroxy-2-methylpropan-1-one]
6 | 9% | Cc1c(C(=O)C(C)(C)C)oc2nc(-c3ccc(-c4cn[nH]c4)cc3Cl)c(-c3ccc(Cl)cc3)cc12 [Example 10, 1-{5-(4-Chlorophenyl)-6-[2-chloro-4-(1H-pyrazol-4-yl)phenyl]-3-methylfuro[2,3-b]pyridin-2-yl}-2,2-dimethylpropan-1-one]
7 | 51% | Cc1c(C(=O)CC(C)C)oc2nc(-c3ccc(-c4cn[nH]c4)cc3Cl)c(-c3ccc(Cl)cc3)cc12 [Example 12, 1-{5-(4-Chlorophenyl)-6-[2-chloro-4-(1H-pyrazol-4-yl)phenyl]-3-methylfuro[2,3-b]pyridin-2-yl}-3-methylbutan-1-one]
8 | 15% | CCC(=O)c1oc2nc(-c3ccc(-c4cn[nH]c4)cc3Cl)c(-c3ccc(Cl)cc3)cc2c1NC(=O)C(C)(C)O [Example 13, N-{5-(4-Chlorophenyl)-6-[2-chloro-4-(1H-pyrazol-4-yl)phenyl]-2-propionylfuro[2,3-b]pyridin-3-yl}-2-hydroxy-2-methylpropanamide]
9 | 13% | C[C@H](O)C(=O)Nc1c(C(=O)C(C)(C)C)oc2nc(-c3ccc(-c4cn[nH]c4)cc3Cl)c(-c3ccc(Cl)cc3)cc12 [Example 14, (2S)-N-[5-(4-Chlorophenyl)-6-[2-chloro-4-(1H-pyrazol-4-yl)phenyl]-2-(2,2-dimethylpropanoyl)furo[2,3-b]pyridin-3-yl]-2-hydroxypropanamide]
10 | 13% | CCC(=O)c1oc2nc(-c3ccc(-c4cn[nH]c4)cc3Cl)c(-c3ccc(Cl)cc3)cc2c1NC(=O)[C@H](C)O [Example 15, (2S)-N-{5-(4-Chlorophenyl)-6-[2-chloro-4-(1H-pyrazol-4-yl)phenyl]-2-propionylfuro[2,3-b]pyridin-3-yl}-2-hydroxypropanamide]
11 | 11% | CC(C)(C)C(=O)c1oc2nc(-c3ccc(-c4cn[nH]c4)cc3Cl)c(-c3ccc(Cl)cc3)cc2c1NC(=O)C(C)(C)O [Example 16, N-[5-(4-Chlorophenyl)-6-[2-chloro-4-(1H-pyrazol-4-yl)phenyl]-2-(2,2-dimethylpropanoyl)furo[2,3-b]pyridin-3-yl]-2-hydroxy-2-methylpropanamide]
12 | 36% | CCC(=O)c1oc2nc(-c3ccc(-c4cn[nH]c4)cc3Cl)c(-c3ccc(Cl)cc3)cc2c1NC(=O)CO [Example 17, N-{5-(4-Chlorophenyl)-6-[2-chloro-4-(1H-pyrazol-4-yl)phenyl]-2-propionylfuro[2,3-b]pyridin-3-yl}-2-hydroxyacetamidetrifluoroacetate (salt)]
13 | 26% | CC(=O)Nc1c(C(=O)C(C)(C)O)oc2nc(-c3ccc(-c4cc[nH]n4)cc3Cl)c(-c3ccc(Cl)cc3)cc12 [Example 18, N-[5-(4-Chlorophenyl)-6-[2-chloro-4-(1H-pyrazol-3-yl)phenyl]-2-(2-hydroxy-2-methylpropanoyl)furo[2,3-b]pyridin-3-yl]acetamide]
14 | 16% | CC(=O)Nc1c(C(=O)C(C)(C)C)oc2nc(-c3ccc(-c4cc[nH]n4)cc3Cl)c(-c3ccc(Cl)cc3)cc12 [Example 19, N-[5-(4-Chlorophenyl)-6-[2-chloro-4-(1H-pyrazol-3-yl)phenyl]-2-(2,2-dimethylpropanoyl)furo[2,3-b]pyridin-3-yl]acetamide]
15 | 13% | CC(C)(C)C(=O)c1oc2nc(-c3ccc(-c4cc[nH]n4)cc3Cl)c(-c3ccc(Cl)cc3)cc2c1C(N)=O [Example 20, 5-(4-Chlorophenyl)-6-[2-chloro-4-(1H-pyrazol-3-yl)phenyl]-2-(2,2-dimethylpropanoyl)furo[2,3-b]pyridine-3-carboxamide]
16 | 27% | CC(C)(O)C(=O)c1oc2nc(-c3ccc(-c4cc[nH]n4)cc3Cl)c(-c3ccc(Cl)cc3)cc2c1N [Example 21, 1-{3-Amino-5-(4-chlorophenyl)-6-[2-chloro-4-(1H-pyrazol-3-yl)phenyl]furo-[2,3-b]pyridin-2-yl}-2-hydroxy-2-methylpropan-1-one]
17 | 18% | CC(C)C(=O)c1oc2nc(-c3ccc(-c4cc[nH]n4)cc3Cl)c(-c3ccc(Cl)cc3)cc2c1N [Example 22, 1-{3-Amino-5-(4-chlorophenyl)-6-[2-chloro-4-(1H-pyrazol-3-yl)phenyl]furo-[2,3-b]pyridin-2-yl}-2-methylpropan-1-one]
18 | 24% | Cc1c(C(=O)C(C)(C)O)oc2nc(-c3ccc(-c4cc[nH]n4)cc3Cl)c(-c3ccc(Cl)cc3)cc12 [Example 23, 1-{5-(4-Chlorophenyl)-6-[2-chloro-4-(1H-pyrazol-3-yl)phenyl]-3-methylfuro[2,3-b]pyridin-2-yl}-2-hydroxy-2-methylpropan-1-one]
19 | 13% | Cc1c(S(=O)(=O)C(C)(C)C)oc2nc(-c3ccc(-c4cc[nH]n4)cc3Cl)c(-c3ccc(Cl)cc3)cc12 [Example 24, 2-(Tert-butylsulfonyl)-5-(4-chlorophenyl)-6-[2-chloro-4-(1H-pyrazol-3-yl)phenyl]-3-methylfuro[2,3-b]pyridine]
20 | 35% | Cc1c(C(=O)C(C)C)oc2nc(-c3ccc(-c4cc[nH]n4)cc3Cl)c(-c3ccc(Cl)cc3)cc12 [Example 25, 1-{5-(4-Chlorophenyl)-6-[2-chloro-4-(1H-pyrazol-3-yl)phenyl]-3-methylfuro[2,3-b]pyridin-2-yl}-2-methylpropan-1-one]
21 | 28% | CCC(=O)c1oc2nc(-c3ccc(-c4cc[nH]n4)cc3Cl)c(-c3ccc(Cl)cc3)cc2c1C [Example 26, 1-{5-(4-Chlorophenyl)-6-[2-chloro-4-(1H-pyrazol-3-yl)phenyl]-3-methylfuro[2,3-b]pyridin-2-yl}propan-1-one]
22 | 29% | CC(C)(C)C(=O)c1oc2nc(-c3ccc(-c4cc[nH]n4)cc3Cl)c(-c3ccc(Cl)cc3)cc2c1NC(=O)CO [Example 27, N-[5-(4-Chlorophenyl)-6-[2-chloro-4-(3H-pyrazol-5-yl)phenyl]-2-(2,2-dimethyl-propanoyl)furo[2,3-b]pyridin-3-yl]-2-hydroxyacetamide]
23 | 16% | CC(C)C(=O)c1oc2nc(-c3ccc(-c4cc[nH]n4)cc3Cl)c(-c3ccc(Cl)cc3)cc2c1N1CCCC1=O [Example 28, 1-{5-(4-Chlorophenyl)-6-[2-chloro-4-(1H-pyrazol-3-yl)phenyl]-2-isobutyrylfuro[2,3-b]pyridin-3-yl}pyrrolidin-2-one]
24 | 20% | CNC(=O)c1c(C(=O)C(C)(C)C)oc2nc(-c3ccc(-c4cc[nH]n4)cc3Cl)c(-c3ccc(Cl)cc3)cc12 [Example 29, 5-(4-Chlorophenyl)-6-[2-chloro-4-(1H-pyrazol-3-yl)phenyl]-2-(2,2-dimethylpropanoyl)-N-methylfuro[2,3-b]pyridine-3-carboxamide]
25 | 19% | CC(=O)n1cc(-c2ccc(-c3nc4oc(C(=O)C(C)(C)O)c(N)c4cc3-c3ccc(Cl)cc3)c(Cl)c2)cn1 [Example 30, 1-[6-[4-(1-Acetyl-1H-pirazol-4-yl)-2-chlorophenyl]-3-amino-5-(4-chlorophenyl)furo[2,3-b]pyridin-2-yl]-2-hydroxy-2-methylpropan-1-one]
26 | 30% | CC(C)(O)C(=O)c1oc2nc(-c3ccc(-c4cn[nH]c4)cc3Cl)c(-c3ccc(Cl)cc3)cc2c1NC(=O)CO [Example 31, N-[5-(4-Chlorophenyl)-6-[2-chloro-4-(1H-pyrazol-4-yl)phenyl]-2-(2-hydroxy-2-methylpropanoyl)-furo[2,3-b]pyridin-3-yl]-2-hydroxyacetamide]
